Results: patent publication US11712430B2, “Formulated cannabis oil powder by nanoemulsification, methods of producing and uses thereof” (KARNAK TECHNOLOGIES, LLC, priority 2018, dated 2023)

Test: Complete dissolution of agents to obtain the aqueous phase
Format: physicochemical
Settings: as in Example 1, Stage 1
Protocol: 0.25 gr ammonium glycyrrhizinate, (Sigma, 50531-50G, cas: 53956-04-0), 2 gr Maltodextrin, (Sigma, 419699-500G, cas: 9050-36-6), 2 gr sucrose, (Sigma, 59378-500G, cas: 57-50-1) and 14.3 gr triple distilled water (TDW) were mixed using a magnetic stirrer for 10 min at 35-40° C. until a complete dissolution and acquisition of an aqueous solution.
It should be noted that among the various selected agents used for the preparation of the various formulations of the invention so far, cyclodextrin was proven to be incompatible in terms of a complete dissolution to obtain the aqueous phase as in Example 1, Stage 1.

With cyclodextrin the “compatibility in terms of a complete dissolution to obtain the aqueous phase” value was “incompatible”.
